Series [1] deals with Paracoccidioides brasiliensis. The series is described as follows: Antifungal activity against Paracoccidioides brasiliensis Pb18 after 7 days by microbroth dilution assay. The series is classed as functional. The conditions noted are these: 168 h.
For a further series, the system named is Candida albicans. Kind of series: Antifungal activity against Candida albicans ATCC 18804 after 48 hrs by microbroth dilution assay. The series is classed as functional. Particulars: ATCC 18804, 48 h.
For another series, the system named is Pichia kudriavzevii. Kind of series: Antifungal activity against Candida krusei ATCC 20298 after 48 hrs by microbroth dilution assay. The series is classed as functional. Particulars: ATCC 20298, 48 h.
For a further series, the system named is Candida tropicalis. Kind of series: Antifungal activity against Candida tropicalis ATCC 750 after 48 hrs by microbroth dilution assay. The series is classed as functional. Particulars: ATCC 750, 48 h. Background: Dilution methods test growth across graded concentrations, often in twofold steps.
The test system of another series is HEK293. Kind of series: Cytotoxicity against human HEK293 cells after 72 hrs by MTT assay. The series is classed as cell-based. Particulars: HEK293, 72 h. For orientation: Tetrazolium dyes change colour on reduction, which living cells bring about.
In the next series the test system is Candida parapsilosis. Kind of series: Antifungal activity against Candida parapsilosis ATCC 22019 after 48 hrs by microbroth dilution assay. The series is classed as functional. Particulars: Lodderomyces parapsilosis, ATCC 22019, 48 h.
The subject of a further series is Cryptococcus neoformans. Kind of series: Antifungal activity against Cryptococcus neoformans ATCC 24067 after 72 hrs by microbroth dilution assay. The series is classed as functional. Particulars: ATCC 24067, 72 h.
For series [2], the system named is Cryptococcus bacillisporus. Kind of series: Antifungal activity against Cryptococcus gattii ATCC 32608 after 72 hrs by microbroth dilution assay. The series is classed as functional. The conditions noted are these: ATCC 32608, 72 h.
Series [3] can be described thus: Cytotoxicity against human HEK293 cells assessed as cell viability at 250 uM after 72 hrs by MTT assay relative to control. The series is classed as cell-based. Particulars: read-out: Activity.

Converted amounts (≈) assume the structure as drawn.

What is called MIC is the smallest concentration in the dilution series that meets the test's criterion for growth inhibition. What is called IC50 is the midpoint of a concentration-inhibition curve. Low readings indicate higher potency, high ones lower potency. `C[C@@H]1[C@H](O)[C@@H](C)/C=C/C=C/C=C/C=C/C=C/C=C/C=C/[C@H](O[C@@H]2O[C@H](C)[C@@H](O)[C@H](N)[C@@H]2O)C[C@@H]2O[C@](O)(C[C@@H](O)C[C@@H](O)[C@H](O)CC[C@@H](O)C[C@@H](O)CC(=O)O[C@H]1C)C[C@H](O)[C@H]2C(=O)O` [AMPHOTERICIN B]: the MIC was 0.06 µM (≈ 0.0554 µg/mL) in series [1]; 0.3 µM (≈ 0.277 µg/mL) against Candida albicans; 0.5 µM (≈ 0.462 µg/mL) in the series with Pichia kudriavzevii; 1.2 µM (≈ 1.11 µg/mL) against Candida tropicalis; 0.5 µM (≈ 0.462 µg/mL) against Candida parapsilosis; 0.09 µM (≈ 0.0832 µg/mL) in the series on Cryptococcus neoformans. Further, the MIC in series [2] came to 0.08 µM (≈ 0.0739 µg/mL). In the series with HEK293, the IC50 came out at 78.6 µM.
As to `CCC(C)n1ncn(-c2ccc(N3CCN(c4ccc(OCC5COC(Cn6cncn6)(c6ccc(Cl)cc6Cl)O5)cc4)CC3)cc2)c1=O` (configuration not stated) [ITRACONAZOLE], in [3], the viability at 72 h, 250 µM stood at 90.8%. Further, the MIC was 0.06 µM (≈ 0.0423 µg/mL) in [1]; 0.7 µM (≈ 0.494 µg/mL) against Candida albicans; 0.18 µM (≈ 0.127 µg/mL) in the series on Pichia kudriavzevii; 0.09 µM (≈ 0.0635 µg/mL) against Candida tropicalis; 0.18 µM (≈ 0.127 µg/mL) in the series with Candida parapsilosis; 0.04 µM (≈ 0.0282 µg/mL) in the series on Cryptococcus neoformans. Besides, the MIC in [2] was determined as 0.18 µM (≈ 0.127 µg/mL). Moreover, in the series with HEK293, the IC50 is over 250 µM.
Take `OC(Cn1cncn1)(Cn1cncn1)c1ccc(F)cc1F` [FLUCONAZOLE]: in series [3], the viability at 72 h, 250 µM worked out at 99.2%. The MIC in the series on Candida albicans turned out to be 1.6 µM (≈ 0.49 µg/mL); with Pichia kudriavzevii it was 104 µM (≈ 32 µg/mL); against Candida tropicalis, 6.5 µM (≈ 1.99 µg/mL); with Candida parapsilosis, 3.2 µM (≈ 0.98 µg/mL); in the series with Cryptococcus neoformans, 6.2 µM (≈ 1.9 µg/mL); in series [2] it was 12.7 µM (≈ 3.89 µg/mL). In the series with HEK293, this compound registered a concentration for half-maximal inhibition (IC50) of over 250 µM.
Regarding `COc1ccc(-c2csc(N/N=C(C)/C=C/c3ccc(O)c(OC)c3)n2)cc1`, the MIC (with Candida albicans; in the series on Pichia kudriavzevii; against Candida tropicalis; in the series on Candida parapsilosis; with Cryptococcus neoformans; in [2]) was 250 µM (≈ 98.9 µg/mL) in each case.
`COc1cc(/C=C/C(C)=N/NC(N)=S)ccc1O`: the MIC (in series [1]; in the series on Candida albicans; against Pichia kudriavzevii; in the series with Candida tropicalis; against Candida parapsilosis; against Cryptococcus neoformans) was over 250 µM throughout. This compound also registered an MIC in [2] of over 250 µM.
With `CC(C)(C)/C=N/Nc1nc(-c2ccccc2)cs1`, the MIC came out at 125 µM (≈ 32.4 µg/mL) in [1]; 3.9 µM (≈ 1.01 µg/mL) in the series with Candida albicans; 5.8 µM (≈ 1.5 µg/mL) with Pichia kudriavzevii; 31.2 µM (≈ 8.09 µg/mL) against Candida tropicalis; 3.9 µM (≈ 1.01 µg/mL) with Candida parapsilosis; 1.9 µM (≈ 0.493 µg/mL) in the series with Cryptococcus neoformans. Moreover, the MIC in series [2] worked out at 1.9 µM (≈ 0.493 µg/mL).
In the case of `Clc1ccc(-c2csc(N/N=C/C=C/c3ccccc3)n2)cc1`, the MIC (in [1]; in the series with Candida albicans; with Pichia kudriavzevii; against Candida tropicalis; in the series on Candida parapsilosis; in the series with Cryptococcus neoformans) was over 250 µM throughout. This compound also registered an MIC in [2] of over 250 µM.
With `COc1cc(/C=C/C(C)=N/Nc2nc(-c3ccc(Cl)cc3)cs2)ccc1O`, the MIC in series [1] worked out at 62.5 µM (≈ 25 µg/mL); with Candida albicans it was 250 µM (≈ 100 µg/mL); in the series on Pichia kudriavzevii, 250 µM (≈ 100 µg/mL); against Candida tropicalis it was 250 µM (≈ 100 µg/mL); in the series with Candida parapsilosis, 250 µM (≈ 100 µg/mL); in the series with Cryptococcus neoformans it was 250 µM (≈ 100 µg/mL). In addition, the MIC in [2] is 125 µM (≈ 50 µg/mL).
As for `CC(C)(C)/C=N/NC(N)=S`, the MIC (in series [1]; against Candida albicans; against Pichia kudriavzevii; with Candida tropicalis; against Candida parapsilosis; with Cryptococcus neoformans) was over 250 µM throughout. The compound further yielded an MIC in series [2] of over 250 µM.
For the compound `C/C(=N\Nc1nc(-c2ccc(Cl)cc2)cs1)c1ccc(N)cc1`, the MIC (in series [1]; in the series on Candida albicans; against Pichia kudriavzevii; in the series on Candida tropicalis; in the series on Candida parapsilosis; with Cryptococcus neoformans) was over 250 µM each time. The MIC in [2] was over 250 µM.
Take `COc1cc(/C=C/C(C)=N/Nc2nc(-c3ccccc3)cs2)ccc1O`: the MIC (in series [1]; with Candida albicans; against Pichia kudriavzevii; in the series with Candida tropicalis; against Candida parapsilosis; in the series on Cryptococcus neoformans) was 250 µM (≈ 91.4 µg/mL) each time. This compound registered an MIC in series [2] of 250 µM (≈ 91.4 µg/mL).
On to `CCC/C(CC)=N/NC(N)=S`, for which the MIC (in [1]; with Candida albicans; against Pichia kudriavzevii; with Candida tropicalis; in the series on Candida parapsilosis; against Cryptococcus neoformans) was over 250 µM each time. The MIC in series [2] was over 250 µM.

For the origin of these results see ChEMBL document CHEMBL4152194, “Synthesis, molecular modeling studies and evaluation of antifungal activity of a novel series of thiazole derivatives” (Eur J Med Chem, 2018).
